Test results reported in patent publication US20230072854A1, “PARAXANTHINE-BASED BIOACTIVE COMPOSITION AND METHOD OF USE THEREOF” (Ingenious Ingredients, LP, priority 2020, published 2023).

Test: Toxicity, LD50
Conditions: in vivo

Cn1cnc2c1c(=O)[nH]c(=O)n2C [theobromine, reference compound]
LD50: 1260 mg/kg
